From patent publication US9855270B2, “Methods and compositions for modulating estrogen receptor mutants” (priority 2014, dated 2018)
Read-outs that look alike come from different tables or passages of the source.

What was measured:
[1] = system: MCF-7 cells stably expressing UbC HA-ER-α E380Q; experiment: cells; type: cell-based; settings: UbC HA-ER-α E380Q; for EC50: Homo sapiens, MCF7, read-out: Potency (EC50; nM); for Efficacy (Emax): Day 5 relative to Day 0; for Percent inhibition compared to vehicle: 5-Day Incubation
Procedure, shortened: (§1)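 CellTiter-Glo read-out: background-subtracted RLU divided by day-0 RLU gives fold proliferation. Cells were MCF-7 transduced with HA-ER-α lentivirus (EF1 high or UbC low-moderate promoter) or empty vector, dosed 10 μM–5 pM for 5 days in phenol-free RPMI/10% CSS.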

[2] = system: MCF-7 cells stably expressing EF1 HA-ER-α E380Q; experiment: cells; type: cell-based; settings: EF1 HA-ER-α E380Q; for Efficacy (Emax): Day 5 relative to Day 0; for Percent inhibition compared to vehicle: 5-Day Incubation; for EC50: Homo sapiens, MCF7, read-out: Potency (EC50; nM)
Procedure, shortened: as §1

[3] = system: MCF-7 cells stably expressing EF1 HA-ER-α wild-type; experiment: MCF-7 Stable Cell Line Viability (EF1 HA-ER-α series); type: cell-based; design: Percent inhibition compared to vehicle: concentration or dose not given beside the values; settings: EF1 HA-ER-α Wild-type; for Efficacy (Emax): Day 5 relative to Day 0; for EC50: Homo sapiens, MCF7, read-out: Potency (EC50; nM); for Percent inhibition compared to vehicle: 5-Day Incubation
From the text: (§2) MCF-7 Mutant ER-α Stable Cell Line Generation: MCF-7 cells stably expressing wild-type or ER-α mutants were generated by subcloning ESR1 wild-type and mutant cDNAs containing an amino terminal hemagglutinin tag into pCDH-EF1-MCS-(PGK-Puro) (referred to as EF1 HA-ER-α) and pCDH-UbC-MCS-EF1-Hygro (referred to as UbC HA-ER-α) (System Biosciences). The resulting plasmids, in addition to an empty vector negative control, were subsequently cotransfected into HEK293T cells with the pPACKH1 packaging plasmid mix (System Biosciences) according to the manufacturer's protocol. Four days post transfection lentiviral particles were purified from the cell medium, tiered and stored at −80° C. MCF-7 cells were transduced with the purified viral particles and stable cell lines were selected by growth in RPMI containing 10% FBS plus 1 μG/mL puromycin or 200 μG/mL hygromycin for pCDH-EF1-MCS-(PGK-Puro) and pCDH-UbC-MCS-EF1-Hygro, respectively.
(§3) MCF-7 Stable Cell Line Viability: MCF-7 cells were enumerated with a hemacytometer adjusted to a concentration of 40,000 cells per mL in Phenol Free RPMI containing 10% CSS with NEAA and Sodium Pyruvate. 16 microliters of the cell suspension was added to each well of a 384 well tissue culture treated white clear bottom polystyrene plate (Corning) using a Matrix 16 channel electronic pipette. The cells were incubated overnight to allow the cells to adhere. The following day, 16 microliters of Phenol Free RPMI containing 10% CSS with NEAA and Sodium Pyruvate was added to the wells of one plate, followed by 16 μL of CellTiter-Glo (Promega, Madison Wis.) luminescent cell viability reagent using a Matrix 16 channel electronic pipette. […] The “average” of the relative luminescence units (RLUs) of the wells are considered to be the baseline value at time=zero. In addition, a 10 point, 1:5 serial dilution in DMSO (Sigma-Aldrich) was performed using Matrix 12 channel electronic pipette, including DMSO only as […]. 4 μL of each dilution was then added to 196 μL of RPMI containing 10% CSS with NEAA and Sodium Pyruvate. 16 μL of medium containing compound was added to the cells at a final concentration ranging from 10 μM to 5 pM. Compound dilution in media and subsequent addition to cells were carried out using Matrix 12 channel electronic pipettes. After 5 day compound exposure, 16 μL of CellTiter-Glo (Promega, Madison Wis.) luminescent cell viability reagent was added to the cells using a Matrix 16 channel electronic pipette. CellTiter-Glo added to 32 μL of medium without cells was used to obtain a background value. […] The relative luminescence units (RLUs) of each well were measured, and relative proliferation (fold) of each sample was determined as follows: (RLU sample−RLU background)/(RLU at T=0)=relative proliferation
(§4) The UbC promoter is reported by the manufacturer (System Biosciences) to express low to moderate RNA levels while the EF1 promoter expresses high levels (System Biosciences).

[4] = system: MCF-7 cells transduced with an empty EF1 lentiviral vector (negative control); experiment: as above; type: cell-based; design: Percent inhibition compared to vehicle: concentration or dose not given beside the values; settings: for EC50: Homo sapiens, MCF7, Receptor None (empty EF1 lentiviral vector), read-out: Potency (EC50; nM); for Efficacy (Emax) / Percent inhibition compared to vehicle: Receptor None (empty EF1 lentiviral vector); for Efficacy (Emax): Day 5 relative to Day 0; for Percent inhibition compared to vehicle: 5-Day Incubation
From the text: as §2, §3, §4

[5] = molecular target: T1, wild-type ER-α (Homo sapiens, UniProt P03372)
T1 sequence (P03372 1-595): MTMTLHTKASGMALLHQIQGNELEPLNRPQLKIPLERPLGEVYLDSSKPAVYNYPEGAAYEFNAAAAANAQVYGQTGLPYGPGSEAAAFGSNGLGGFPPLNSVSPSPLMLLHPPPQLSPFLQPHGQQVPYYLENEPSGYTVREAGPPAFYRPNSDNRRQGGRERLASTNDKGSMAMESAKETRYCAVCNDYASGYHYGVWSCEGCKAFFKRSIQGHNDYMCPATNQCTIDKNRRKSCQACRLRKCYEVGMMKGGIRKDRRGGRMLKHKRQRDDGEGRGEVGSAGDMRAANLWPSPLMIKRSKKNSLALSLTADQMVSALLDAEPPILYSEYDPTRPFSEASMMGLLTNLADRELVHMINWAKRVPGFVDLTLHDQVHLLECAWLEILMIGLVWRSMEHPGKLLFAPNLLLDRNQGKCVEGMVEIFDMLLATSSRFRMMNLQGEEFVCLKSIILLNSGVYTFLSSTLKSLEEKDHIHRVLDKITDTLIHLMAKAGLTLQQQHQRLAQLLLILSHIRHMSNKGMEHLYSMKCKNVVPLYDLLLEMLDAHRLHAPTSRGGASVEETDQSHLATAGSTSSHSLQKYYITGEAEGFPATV

[6] = system: MCF-7 cells stably expressing ER-α mutants; settings: 5 day proliferation assays; depending on the mutation and assay format
Experimental: Potency and efficacy of ERM 1-3 were measured in vitro in ER dependent transcriptional reporter assays and viability assays of MCF-7 cells stably expressing ER-α mutants.
as §2
MCF-7 Stable Cell Line Viability: MCF-7 cells were enumerated with a hemacytometer adjusted to a concentration of 40,000 cells per mL in Phenol Free RPMI containing 10% CSS with NEAA and Sodium Pyruvate. 16 microliters of the cell suspension was added to each well of a 384 well tissue culture treated white clear bottom polystyrene plate (Corning) using a Matrix 16 channel electronic pipette. The cells were incubated overnight to allow the cells to adhere. […] The “average” of the relative luminescence units (RLUs) of the wells are considered to be the baseline value at time=zero. […] The relative luminescence units (RLUs) of each well were measured, and relative proliferation (fold) of each sample was determined as follows: (RLU sample−RLU background)/(RLU at T=0)=relative proliferation
Potency and efficacy of ERM 4-23 were measured in vitro in ER dependent transcriptional reporter assays and viability assays of MCF-7 cells stably expressing ER-α mutants.

[7] = Antagonist Mode, −E2 (Table 27)
[8] = Agonist Mode, −E2, relative to vehicle treated wild-type ER-α
[9] = Antagonist Mode, +E2, relative to vehicle treated wild-type ER-α

C[C@]12CC[C@@H]3c4ccc(O)cc4CC[C@H]3[C@@H]1CC[C@@H]2O [17β-Estradiol]
EC50 ([1]; Agonist Mode, −E2): 0.013 ± 0.011 nM
Efficacy (Emax) ([1]; Agonist Mode, −E2): 7.36 ± 1.07
Efficacy (Emax) ([1]; Antagonist Mode, +E2): 7.69 ± 1.94
Efficacy (Emax) ([2]; Antagonist Mode, +E2): 5.75 ± 0.17
Efficacy (Emax) ([3]; Agonist Mode, −E2): 7.35 ± 1.28
Efficacy (Emax) ([3]; Antagonist Mode, +E2): 6.67 ± 1.25
EC50 ([3]; Agonist Mode, −E2): 0.518 ± 0.699 nM
EC50 [3, 7]: 0.518 ± 0.699 nM
EC50 ([4]; Agonist Mode, −E2): 0.02 ± 0.001 nM
EC50 [4, 7]: 0.02 ± 0.001 nM
Efficacy (Emax) ([4]; Antagonist Mode, +E2): 4.24 ± 0.90

CC1=C(c2cccc(O)c2)[C@H](c2ccc(OCCN3CC(CF)C3)cc2)Oc2ccc(O)cc21 [Compound 4-23, (S)-2-(4-(2-(3-(fluoromethyl)azetidin-1-yl)ethoxy)phenyl)-3-(3-hydroxyphenyl)-4-methyl-2H-chromen-6-ol]
EC50 ([1]; Agonist Mode, −E2): 0.208 ± 0.141 nM
EC50 ([1]; Antagonist Mode, +E2): 1.02 ± 0.163 nM
Percent inhibition compared to vehicle ([1]; Agonist Mode, −E2): 58%
Efficacy (Emax) ([1]; Agonist Mode, −E2): 1.78 ± 0.28
Percent inhibition compared to vehicle ([1]; Antagonist Mode, +E2): 77%
Efficacy (Emax) ([1]; Antagonist Mode, +E2): 1.61 ± 0.34
Percent inhibition compared to vehicle ([2]; Agonist Mode, −E2): 63%
Efficacy (Emax) ([2]; Agonist Mode, −E2): 2.43 ± 0.02
Percent inhibition compared to vehicle ([2]; Antagonist Mode, +E2): 62%
Efficacy (Emax) ([2]; Antagonist Mode, +E2): 2.39 ± 0.24
EC50 ([2]; Antagonist Mode, +E2): 14 ± 15.4 nM
EC50 [2, 7]: 3.76 ± 3.11 nM
Percent inhibition compared to vehicle ([5]; Agonist Mode, −E2): 86%
Efficacy (Emax) [5, 8]: 0.14 ± 0.10
Percent inhibition compared to vehicle ([5]; Antagonist Mode, +E2): 96%
Efficacy (Emax) [5, 9]: 0.08 ± 0.07
Percent inhibition compared to vehicle ([3]; Agonist Mode, −E2): 62%
Efficacy (Emax) ([3]; Agonist Mode, −E2): 2.17 ± 0.03
Percent inhibition compared to vehicle ([3]; Antagonist Mode, +E2): 68%
Efficacy (Emax) ([3]; Antagonist Mode, +E2): 2.17 ± 0.29
EC50 ([3]; Antagonist Mode, +E2): 8.65 ± 10.5 nM
EC50 [3, 7]: 2.13 ± 2.06 nM
EC50 ([4]; Antagonist Mode, +E2): 2.81 ± 3.28 nM
EC50 [4, 7]: 0.286 ± 0.294 nM
Percent inhibition compared to vehicle ([4]; Agonist Mode, −E2): 52%
Efficacy (Emax) ([4]; Agonist Mode, −E2): 1.06 ± 0.24
Percent inhibition compared to vehicle ([4]; Antagonist Mode, +E2): 76%
Efficacy (Emax) ([4]; Antagonist Mode, +E2): 0.96 ± 0.12
reduced the number of viable cells (compared to DMSO control) [6]: 49%-90%

C[C@]12CC[C@@H]3c4ccc(O)cc4C[C@@H](CCCCCCCCC[S+]([O-])CCCC(F)(F)C(F)(F)F)[C@H]3[C@@H]1CC[C@@H]2O (stereo partly drawn) [Fulvestrant]
EC50 ([1]; Agonist Mode, −E2): 0.248 ± 0.094 nM
EC50 ([1]; Antagonist Mode, +E2): 1.14 ± 0.028 nM
Percent inhibition compared to vehicle ([1]; Agonist Mode, −E2): 60%
Efficacy (Emax) ([1]; Agonist Mode, −E2): 1.70 ± 0.30
Percent inhibition compared to vehicle ([1]; Antagonist Mode, +E2): 76%
Efficacy (Emax) ([1]; Antagonist Mode, +E2): 1.70 ± 0.32
Percent inhibition compared to vehicle ([2]; Agonist Mode, −E2): 62%
Efficacy (Emax) ([2]; Agonist Mode, −E2): 2.50 ± 0.03
Percent inhibition compared to vehicle ([2]; Antagonist Mode, +E2): 65%
Efficacy (Emax) ([2]; Antagonist Mode, +E2): 2.21 ± 0.12
EC50 ([2]; Agonist Mode, −E2): 4.36 ± 3.23 nM
EC50 ([2]; Antagonist Mode, +E2): 10.3 ± 2.62 nM
EC50 [2, 7]: 4.36 ± 3.23 nM
Efficacy (Emax) [5, 8]: 0.15 ± 0.09
Efficacy (Emax) [5, 9]: 0.06 ± 0.08
Percent inhibition compared to vehicle ([3]; Agonist Mode, −E2): 63%
Efficacy (Emax) ([3]; Agonist Mode, −E2): 2.12 ± 0.23
Percent inhibition compared to vehicle ([3]; Antagonist Mode, +E2): 70%
Efficacy (Emax) ([3]; Antagonist Mode, +E2): 2.04 ± 0.10
EC50 ([3]; Agonist Mode, −E2): 0.895 ± 0.173 nM
EC50 ([3]; Antagonist Mode, +E2): 3.97 ± 0.955 nM
EC50 [3, 7]: 0.895 ± 0.173 nM
EC50 ([4]; Agonist Mode, −E2): 0.178 ± 0.129 nM
EC50 ([4]; Antagonist Mode, +E2): 1.44 ± 0.156 nM
EC50 [4, 7]: 0.178 ± 0.129 nM
Percent inhibition compared to vehicle ([4]; Agonist Mode, −E2): 51%
Efficacy (Emax) ([4]; Agonist Mode, −E2): 1.09 ± 0.16
Percent inhibition compared to vehicle ([4]; Antagonist Mode, +E2): 74%
Efficacy (Emax) ([4]; Antagonist Mode, +E2): 1.04 ± 0.15
